# Data as given in patent US20150175585A1, “FUSED QUINONIC COMPOUNDS” (CENTRO ATLANTICO DEL MEDICAMENTO S.A (CEAMED, S.A.), priority 2012, published 2015).
# How the values were obtained:
# [1] = tested on: K562 cells; assay: K562-based MTT cell viability assay; design: species or system human; details: Homo sapiens, 48 h, read-out: Activity (IC50, reduction of cell viability)
# Description: Cell viability was assayed by measuring the mitochondrial reduction of the tetrazolium salt 3-(4,5-methyltiazol-2yl)-2,5diphenyl-tetrazolium bromide] (MTT) (Applichen; A2231,0010) (Mosmann T. J Immunol Methods. 1983 16; 65(1-2):55-63; Chuan Y-C et al 2010. Oncogene. 29 (10), 1531-1542. Cells were seeded in 96-well plates in medium supplemented with 10% FBS (Lonza Cat. No: 14-502F), 2 mM L-Glut (Lonza Cat. No: BE17-605E) and 100 U/ml PEST (Lonza Cat. No: DE17-605E) at a cell density of 5000-20000 cells/well. Cells were seeded at a density according to their exponential growth phase. Vehicle (0.05% DMSO) or drug were added to culture medium at the indicated concentrations (10 to 0.01 microM) during 48 h. Then, MTT (0.3 mg/ml) was added to cells following by incubation for 2-4 h at 37° C. in the dark. The medium was then discarded and the formazan precipitate was solubilized by addition of 20% SDS (Sigma; L-5750) in 0.02N HCl (Panreac; 131020.1611) for 12-16 h. The optical density was measured at 595 nm with the iMark Microplate Reader (BioRad, USA). Data was expressed as percent growth above the level in controls and the results in figures were plotted as means±SEM of each test point from 3 replicates.
# Statistical analysis. The concentration of drug that provokes 50% reduction of cell viability (IC50) was determined by using non-linear regression analysis and data were fitted to a log concentration vs normalized response curve in GraphPad software v5 (San Diego, Calif.).
# [2] = tested on: STAT5; assay: Epo induced STAT5 phosphorylation in HEL cells (Western immunoblotting); format: cell-based, human; details: serum deprived HEL cells; 5 μM for 0.5-3 h or 0.5-10 μM for 3 h; Epo 10 units/ml 5 min
# Description: FIG. 1. • A) Overnight serum deprived HEL cells were stimulated with Epo (10 units/ml) for 5, 10, 20, 30, 45 and 60 min. JAK2, pYJAK2, STAT5 and pYSTAT5 were detected using Western immunoblotting as described in methods. B) Overnight serum deprived HEL cells were pre-incubated with compound 4 (C4) (5 μM) for 0.5, 1, 2, and 3 h, and subsequently stimulated with 10 units/ml Epo for 5 min. JAK2, pYJAK2, STAT5 and pYSTAT5 were detected using Western immunoblotting as described in methods. C) Overnight serum deprived HEL cells were pre-incubated with C4 at increasing concentrations (0.5-10 μM) for 3 h, and subsequently stimulated with 10 units/ml Epo for 5 min. JAK2, pJAK2, STAT5 and pSTAT5 were detected using Western immunoblotting as described in methods. […]
# For total protein extraction, cells were scraped with RIPA 1× lysis buffer (25 mM Tris-HCl pH 7.6, 150 mM NaCl, 1% NP-40, 1% sodium deoxycholate, 0.1% SDS, no. 89900, Thermo Scientific, Rockford, Ill., USA) supplemented with 1× protease and 1× phosphatase inhibitor cocktails (100× Halt™ Protease Inhibitor Cocktail, no. 87786 and 100× Halt™ Phosphatase Inhibitor Cocktail, no. 78420, both from Thermo Scientific, Rockford, Ill., USA). An aliquot of each extract was preserved for protein quantification by bicinchoninic acid assay (Pierce® BCA Protein Assay Kit, no. 23225, Thermo Scientific, Rockford, Ill., USA). […]
# [3] = tested on: K562 tumors; assay: In vivo efficacy, K562 tumor xenografts in NOD-SCID mice; details: 10 mg/kg i.p. daily except Saturdays and Sundays, 25 day study; P=0.004 day 4, P=0.007 day 25
# Text: Mice were sacrificed when their tumor diameters reached 2 cm, or when they became moribund.
structure (smiles),measurement,setting,value
"N#Cc1ccc(C2C3=C(CCCC3=O)OC3=C2C(=O)c2ccccc2C3=O)cc1 (stereo not drawn) [Compound 4, 4-(1,6,11-trioxo-2,3,4,6,11,12-hexahydro-1H-benzo[b]xanthen-12-yl)benzonitrile]",IC50,[1],< 1000 nM
same,Epo-induced phosphorylation of STAT5,[2],"inhibits, in a time/dose dependent manner"
same,tumor growth (tumor volume) compared to control group,[3],"pronounced, and statistically significant reduction"
